The values that follow come from ChEMBL document CHEMBL1201862, “PubChem BioAssay data set” (2004).

SMILES strings stand for the structures. Active and inactive are the calls of the source. Where only a bound is given, the exact number is not on record here.

Assay [1] concerns the target Mucolipin-3 (Homo sapiens, UniProt Q8TDD5). The assay can be described thus: Dose response cell-based high-throughput screening assay for agonists of the transient receptor potential channel ML3 (TRPML3). [Related pubchem assays: 1526, 1424, 1448 ]. Type of assay: functional.
Assay [2] concerns the target T1, Cannabinoid receptor 1 (Homo sapiens, UniProt P21554). The assay can be described thus: SAR analysis of agonists of the Cannabinoid Receptor 1 using an Image-Based Assay - Set 2. [Related pubchem assays (depositor defined):AID2013, AID2026]. Type of assay: functional.
Assay [3] has as its target T2, Cannabinoid receptor 2 (Homo sapiens, UniProt P34972). The assay can be described thus: SAR analysis of agonists of the Cannabinoid Receptor 2 using an Image-Based Assay. [Related pubchem assays (depositor defined):AID2013, AID2026]. Type of assay: functional.
Assay [4] addresses T3, G-protein coupled receptor 35 (Homo sapiens, UniProt Q9HC97). Put plainly: SAR analysis of Agonists of the GPR35 Receptor using an Image-Based Assay - Set 2. [Related pubchem assays (depositor defined):AID2013, AID2026]. Type of assay: functional.
Assay [5] concerns the target T3, G-protein coupled receptor 35. Put plainly: SAR analysis of Antagonists of the GPR35 Receptor using an Image-Based Assay - Set 3. [Related pubchem assays (depositor defined):AID2013, AID2026]. Type of assay: functional.
Assay [6] has as its target T4, G-protein coupled receptor 55 (Homo sapiens, UniProt Q9Y2T6). The assay can be described thus: GPR55 antagonist potency of analogs, SAR follow-up, imaging, U2OS, beta-arrestin-GFP, LPI agonist, set 2 (AID 2820). Type of assay: functional.
Assay [7] has as its target T4, G-protein coupled receptor 55. The assay can be described thus: GPR55 antagonists blocking LPI-driven arrestin recruitment, primary screen, imaging, U2OS, beta-arrestin-GFP, LPI agonist (AID 2013).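 Further: antagonist potency measured as reduced agonist-driven arrestin aggregation.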 Type of assay: functional.
Assay [8] deals with T1, Cannabinoid receptor 1. The assay can be described thus: SAR analysis of antagonists of the Cannabinoid Receptor 1 using an Image-Based Assay - Set 2. [Related pubchem assays (depositor defined):AID2013, AID2026]. Type of assay: functional.
Assay [9] addresses Ion channel NompC (Danio rerio, UniProt Q7T1G6). The assay can be described thus: Fluorescence counterscreen assay for TRPML3 agonists: dose response cell-based high-throughput screening assay to identify agonists of the transient receptor potential channel N1 (TRPN1). [Related pubchem assays: 1526, 1424, 1448 ]. Format: functional. (A counterscreen serves to expose hits that act by an unwanted route or on another target.)

For assay [10], the target named is T2, Cannabinoid receptor 2. The assay can be described thus: SAR analysis of antagonists of the Cannabinoid Receptor 2 using an Image-Based Assay. [Related pubchem assays (depositor defined):AID2013, AID2026]. Format: functional.
Assay [11] is described as follows: Luminescence Cell-Based Dose HTS Response to Identify Inhibitors of 5'UTR Stem-Loop Driven Prion Protein mRNA Translation in H4-C Neuroglioblastoma Cells. [Related pubchem assays (depositor defined):AID1814, AID1827]. Format: functional.
Assay [12] deals with BJ. The assay can be described thus: cytotoxicity toward BJ-TERT-LT-ST fibroblasts, dose response, cell-based, RAS-independent, luminescence (AID 1935).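 Further: BJ fibroblasts immortalized with TERT plus LT and ST oncogenes.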 Type of assay: functional. As to conditions: Homo sapiens.
The nature of assay [13]: cytotoxicity toward DRD oncogenic fibroblasts, dose response, cell-based, non-viral oncogenic, luminescence (AID 1934). Type of assay: functional. The conditions noted are these: Homo sapiens.
A short description of assay [14]: Luminescence Cell-Based Dose Response HTS to Identify Inhibitors of Luciferase Translation or Activity in H4-C Neuroglioblastoma Cells. [Related pubchem assays: 1813 (Primary HTS), 1827 (Project Summary)]. Type of assay: functional.
In assay [15] the test system is BJ. Put plainly: cells. Type of assay: functional, cell-based. As to conditions: Homo sapiens.
Assay [16] in a line: cells. Format: functional, cell-based.
In assay [17] the test system is BJ. Put plainly: cytotoxicity toward Ras-transformed BJeLR fibroblasts, dose response, cell-based, alamar blue fluorescence, cherrypicked samples (AID 2631).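 Further: confirmatory dose-response assay in RAS-dependent BJ fibroblasts engineered with TERT, LT and ST, with cytotoxicity read by fluorescence.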 Format: functional. As to conditions: Homo sapiens. (The colour change of resazurin is a common sign of viable cells or microbes.)
Assay [18] addresses T5, Nuclear receptor subfamily 0 group B member 1 (Homo sapiens, UniProt P51843).
T5 sequence (P51843 whole entry): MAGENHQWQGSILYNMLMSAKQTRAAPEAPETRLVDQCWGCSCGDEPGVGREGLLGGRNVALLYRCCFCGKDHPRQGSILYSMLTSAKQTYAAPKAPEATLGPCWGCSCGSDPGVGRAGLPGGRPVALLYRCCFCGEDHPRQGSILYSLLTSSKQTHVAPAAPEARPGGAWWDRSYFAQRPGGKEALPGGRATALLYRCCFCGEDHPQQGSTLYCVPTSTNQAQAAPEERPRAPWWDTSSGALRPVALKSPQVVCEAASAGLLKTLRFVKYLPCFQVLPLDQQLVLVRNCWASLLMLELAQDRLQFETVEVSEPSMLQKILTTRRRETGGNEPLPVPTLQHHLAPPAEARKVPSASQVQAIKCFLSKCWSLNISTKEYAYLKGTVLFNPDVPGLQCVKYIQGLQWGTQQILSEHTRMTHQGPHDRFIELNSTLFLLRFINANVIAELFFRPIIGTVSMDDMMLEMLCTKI
Format: functional, cell-based.

Assay [19] is described as follows: Luminescence Cell-Based Dose Response HTS to Identify Inhibitors of 5'UTR Stem-Loop Driven Prion Protein mRNA Translation in H4 Neuroglioblastoma Cells. [Related pubchem assays: 1827 (Project Summary), 1813 (Primary HTS)]. Type of assay: functional.
A short description of assay [20]: Luminescence Cell-Based Dose Response HTS to Identify Activators of Luciferase Translation or Activity in H4-C Neuroglioblastoma Cells. [Related pubchem assays: 1829 (Project Summary), 1814 (Primary HTS)]. Type of assay: functional.
Assay [21] is described as follows: Luminescence Cell-Based Dose Confirmation HTS to Identify Inhibitors of 5'UTR Stem-Loop Driven Alpha-Synuclein mRNA Translation in H4 Neuroglioblastoma Cells. [Related pubchem assays: 1827 (Project Summary), 1813 (Primary HTS)]. Format: functional.
For assay [22], the system named is BJ. The assay can be described thus: cytotoxicity toward BJ-TERT fibroblasts, dose response, cell-based, RAS-independent, luminescence (AID 1933). Type of assay: functional. The conditions noted are these: Homo sapiens.
The nature of assay [23]: Luminescence Cell-Based Dose Response HTS to Identify Activators of 5'UTR Stem-Loop Driven Prion Protein mRNA Translation in H4-C Neuroglioblastoma Cells. [Related pubchem assays: 1829 (Project Summary), 1814 (Primary HTS)]. Type of assay: functional.
Assay [24] is described as follows: inhibitors of SNCA 5'UTR-driven reporter translation, confirmation, H4 neuroglioma cells, luminescence (AID 1988). Type of assay: functional, cell-based.
In assay [25] the target is T6, Tyrosine-protein phosphatase non-receptor type 22 (Homo sapiens, UniProt Q9Y2R2). Type of assay: functional.
T6 sequence (Q9Y2R2 whole entry): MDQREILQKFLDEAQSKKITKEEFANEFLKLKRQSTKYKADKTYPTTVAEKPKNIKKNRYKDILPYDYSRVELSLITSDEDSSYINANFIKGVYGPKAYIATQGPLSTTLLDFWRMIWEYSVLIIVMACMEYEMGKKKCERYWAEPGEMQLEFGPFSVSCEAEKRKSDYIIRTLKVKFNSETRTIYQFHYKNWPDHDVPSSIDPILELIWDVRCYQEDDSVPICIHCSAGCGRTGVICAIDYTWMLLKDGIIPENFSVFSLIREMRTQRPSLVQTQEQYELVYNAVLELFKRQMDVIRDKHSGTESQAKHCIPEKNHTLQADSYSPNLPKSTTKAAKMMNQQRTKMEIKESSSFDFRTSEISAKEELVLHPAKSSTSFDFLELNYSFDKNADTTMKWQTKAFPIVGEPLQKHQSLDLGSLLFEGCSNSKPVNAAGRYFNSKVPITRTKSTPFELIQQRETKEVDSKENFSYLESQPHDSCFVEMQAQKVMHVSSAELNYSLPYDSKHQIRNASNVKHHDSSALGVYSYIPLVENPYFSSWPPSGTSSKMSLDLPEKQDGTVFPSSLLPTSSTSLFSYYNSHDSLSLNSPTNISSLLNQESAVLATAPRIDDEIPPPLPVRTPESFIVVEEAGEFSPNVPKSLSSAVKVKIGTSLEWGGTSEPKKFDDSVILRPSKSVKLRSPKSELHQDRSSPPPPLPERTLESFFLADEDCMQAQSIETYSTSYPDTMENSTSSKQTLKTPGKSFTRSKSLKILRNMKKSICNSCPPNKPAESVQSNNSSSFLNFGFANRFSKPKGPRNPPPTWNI
The target in assay [26] is T6, Tyrosine-protein phosphatase non-receptor type 22. Type of assay: functional. The source holds these as a separate data set.
Assay [27] addresses T7, Calpain-2 catalytic subunit (Sus scrofa, UniProt P43367).
T7 sequence (P43367 whole entry): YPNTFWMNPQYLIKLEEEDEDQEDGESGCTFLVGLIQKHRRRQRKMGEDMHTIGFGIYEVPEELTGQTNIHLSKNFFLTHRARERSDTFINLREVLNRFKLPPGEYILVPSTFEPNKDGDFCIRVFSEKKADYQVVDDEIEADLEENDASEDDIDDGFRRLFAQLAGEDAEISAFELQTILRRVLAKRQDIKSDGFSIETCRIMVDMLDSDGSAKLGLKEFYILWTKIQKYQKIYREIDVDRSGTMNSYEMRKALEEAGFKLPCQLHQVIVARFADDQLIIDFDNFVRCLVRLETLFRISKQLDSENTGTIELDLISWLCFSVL
Put plainly: pig calpain II inhibitor potency, dose response, biochemical, fluorogenic peptide substrate (AID 1420). Type of assay: functional.

Assay [28] addresses Tyrosine-protein phosphatase non-receptor type 7 (Homo sapiens, UniProt P35236). Format: functional.

T2 sequence (P34972 whole entry): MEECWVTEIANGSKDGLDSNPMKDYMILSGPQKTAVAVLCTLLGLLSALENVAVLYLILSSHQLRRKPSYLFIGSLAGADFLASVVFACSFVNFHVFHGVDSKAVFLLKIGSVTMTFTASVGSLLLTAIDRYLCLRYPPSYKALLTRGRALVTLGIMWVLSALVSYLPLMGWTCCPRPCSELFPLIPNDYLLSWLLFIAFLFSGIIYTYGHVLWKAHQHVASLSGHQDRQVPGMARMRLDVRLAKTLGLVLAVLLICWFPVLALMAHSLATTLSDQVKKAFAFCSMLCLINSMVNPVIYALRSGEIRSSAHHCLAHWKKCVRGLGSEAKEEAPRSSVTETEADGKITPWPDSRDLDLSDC
T1 sequence (P21554 whole entry): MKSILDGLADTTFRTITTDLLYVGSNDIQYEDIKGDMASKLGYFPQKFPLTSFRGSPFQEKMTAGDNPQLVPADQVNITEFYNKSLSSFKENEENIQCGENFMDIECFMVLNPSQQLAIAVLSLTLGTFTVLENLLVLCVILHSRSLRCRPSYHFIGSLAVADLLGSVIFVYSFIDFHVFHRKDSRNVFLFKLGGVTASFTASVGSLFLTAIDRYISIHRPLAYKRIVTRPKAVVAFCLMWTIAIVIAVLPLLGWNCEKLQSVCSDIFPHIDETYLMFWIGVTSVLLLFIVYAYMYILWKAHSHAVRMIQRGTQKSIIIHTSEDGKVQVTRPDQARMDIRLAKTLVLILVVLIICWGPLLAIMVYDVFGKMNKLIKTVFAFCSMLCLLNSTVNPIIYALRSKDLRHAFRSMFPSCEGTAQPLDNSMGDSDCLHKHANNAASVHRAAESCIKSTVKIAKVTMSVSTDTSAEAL
T3 sequence (Q9HC97 whole entry): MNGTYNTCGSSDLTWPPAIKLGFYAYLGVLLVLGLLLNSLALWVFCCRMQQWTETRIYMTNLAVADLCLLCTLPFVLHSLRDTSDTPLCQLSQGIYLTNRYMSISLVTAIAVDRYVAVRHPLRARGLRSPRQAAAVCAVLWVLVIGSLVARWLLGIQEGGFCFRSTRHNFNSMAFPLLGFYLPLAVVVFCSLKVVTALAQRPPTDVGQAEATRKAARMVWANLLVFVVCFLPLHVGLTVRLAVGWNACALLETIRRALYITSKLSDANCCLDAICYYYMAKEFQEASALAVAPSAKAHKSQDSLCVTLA
T4 sequence (Q9Y2T6 whole entry): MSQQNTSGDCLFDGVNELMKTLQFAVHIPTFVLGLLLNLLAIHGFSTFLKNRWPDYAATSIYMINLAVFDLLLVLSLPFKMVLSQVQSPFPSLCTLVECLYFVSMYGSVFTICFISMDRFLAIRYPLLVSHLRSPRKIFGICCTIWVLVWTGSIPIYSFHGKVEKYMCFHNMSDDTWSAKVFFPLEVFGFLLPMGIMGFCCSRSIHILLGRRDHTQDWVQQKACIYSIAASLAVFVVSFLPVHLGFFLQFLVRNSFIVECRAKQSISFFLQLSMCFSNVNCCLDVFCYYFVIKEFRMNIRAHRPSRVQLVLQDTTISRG
Tyrosine-protein phosphatase non-receptor type 7, sequence (P35236 whole entry): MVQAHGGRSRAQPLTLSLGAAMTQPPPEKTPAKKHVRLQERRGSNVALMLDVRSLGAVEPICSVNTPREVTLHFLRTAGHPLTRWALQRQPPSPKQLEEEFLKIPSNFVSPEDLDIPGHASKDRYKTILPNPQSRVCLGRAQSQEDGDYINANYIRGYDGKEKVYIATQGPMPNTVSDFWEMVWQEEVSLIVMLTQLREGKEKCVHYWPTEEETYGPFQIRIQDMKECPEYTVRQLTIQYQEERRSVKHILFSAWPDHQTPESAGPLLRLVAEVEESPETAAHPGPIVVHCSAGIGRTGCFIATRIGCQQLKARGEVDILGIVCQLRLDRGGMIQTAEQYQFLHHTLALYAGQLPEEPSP
Ion channel NompC, sequence (Q7T1G6 whole entry): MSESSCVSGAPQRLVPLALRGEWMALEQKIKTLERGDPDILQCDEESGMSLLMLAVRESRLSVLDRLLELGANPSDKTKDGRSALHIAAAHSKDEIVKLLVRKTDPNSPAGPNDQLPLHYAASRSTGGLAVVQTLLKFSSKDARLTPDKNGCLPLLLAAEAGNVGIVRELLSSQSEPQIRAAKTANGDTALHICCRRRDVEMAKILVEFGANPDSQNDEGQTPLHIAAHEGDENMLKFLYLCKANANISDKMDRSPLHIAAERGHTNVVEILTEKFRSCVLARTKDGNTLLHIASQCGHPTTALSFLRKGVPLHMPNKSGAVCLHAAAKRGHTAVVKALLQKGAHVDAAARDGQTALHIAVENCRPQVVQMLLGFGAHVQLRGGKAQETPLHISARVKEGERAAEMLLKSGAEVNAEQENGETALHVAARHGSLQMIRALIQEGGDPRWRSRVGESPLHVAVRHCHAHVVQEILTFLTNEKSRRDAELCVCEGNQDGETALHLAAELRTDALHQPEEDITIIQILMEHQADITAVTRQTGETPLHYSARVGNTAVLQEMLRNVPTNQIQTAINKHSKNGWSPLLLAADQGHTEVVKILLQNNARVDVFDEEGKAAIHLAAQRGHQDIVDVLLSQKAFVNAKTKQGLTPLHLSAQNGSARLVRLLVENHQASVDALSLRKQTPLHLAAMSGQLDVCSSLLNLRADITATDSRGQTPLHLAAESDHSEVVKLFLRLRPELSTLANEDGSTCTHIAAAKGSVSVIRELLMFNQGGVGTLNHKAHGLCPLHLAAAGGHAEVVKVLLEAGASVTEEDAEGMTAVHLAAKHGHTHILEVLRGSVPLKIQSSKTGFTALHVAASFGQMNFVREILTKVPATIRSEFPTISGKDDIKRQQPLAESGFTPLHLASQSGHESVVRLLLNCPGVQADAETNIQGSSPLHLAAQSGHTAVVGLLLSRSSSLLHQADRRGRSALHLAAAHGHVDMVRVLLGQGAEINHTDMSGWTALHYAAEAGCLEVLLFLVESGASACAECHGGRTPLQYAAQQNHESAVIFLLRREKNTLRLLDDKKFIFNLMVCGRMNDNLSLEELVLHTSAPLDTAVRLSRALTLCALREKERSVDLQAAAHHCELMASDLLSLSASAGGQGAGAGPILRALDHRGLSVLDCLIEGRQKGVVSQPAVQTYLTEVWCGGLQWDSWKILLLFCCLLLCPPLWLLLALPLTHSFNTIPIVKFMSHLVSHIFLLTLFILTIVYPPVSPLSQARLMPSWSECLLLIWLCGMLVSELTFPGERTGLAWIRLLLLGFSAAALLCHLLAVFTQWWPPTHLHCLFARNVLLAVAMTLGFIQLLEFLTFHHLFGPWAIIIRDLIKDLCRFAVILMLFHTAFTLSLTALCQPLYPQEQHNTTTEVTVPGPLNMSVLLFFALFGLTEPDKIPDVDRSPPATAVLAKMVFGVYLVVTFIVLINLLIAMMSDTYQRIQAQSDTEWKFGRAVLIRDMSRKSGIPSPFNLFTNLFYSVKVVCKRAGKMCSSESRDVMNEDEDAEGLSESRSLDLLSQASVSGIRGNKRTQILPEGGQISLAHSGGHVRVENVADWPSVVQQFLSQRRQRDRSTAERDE
Mucolipin-3, sequence (Q8TDD5 whole entry): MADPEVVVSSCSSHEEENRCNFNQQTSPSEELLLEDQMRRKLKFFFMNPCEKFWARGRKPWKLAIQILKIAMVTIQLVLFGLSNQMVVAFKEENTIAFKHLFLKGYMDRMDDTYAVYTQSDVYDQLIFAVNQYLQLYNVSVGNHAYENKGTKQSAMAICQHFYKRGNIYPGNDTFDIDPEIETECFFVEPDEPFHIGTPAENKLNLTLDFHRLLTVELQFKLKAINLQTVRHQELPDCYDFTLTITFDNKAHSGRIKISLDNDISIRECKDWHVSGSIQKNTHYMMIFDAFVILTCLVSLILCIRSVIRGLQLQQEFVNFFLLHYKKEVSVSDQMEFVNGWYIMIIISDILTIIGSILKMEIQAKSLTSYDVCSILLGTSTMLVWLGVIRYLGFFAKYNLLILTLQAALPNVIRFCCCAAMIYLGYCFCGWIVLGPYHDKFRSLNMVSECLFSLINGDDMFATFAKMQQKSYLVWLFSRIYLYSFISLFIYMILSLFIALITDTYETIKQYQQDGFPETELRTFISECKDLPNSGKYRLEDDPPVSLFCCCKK

As for `COc1ccc(S(=O)(=O)Nc2ccc(C)cc2)cc1N(C)S(=O)(=O)c1ccc(Cl)cc1`, the concentration for a half-maximal effect (EC50) in [1] was 6.67 µM (active); in [2], > 32 µM (inactive); in assay [3], > 32 µM (inactive); in assay [4] it was > 32 µM (inactive); in assay [9], > 29.9 µM (not active). Also, the IC50 was > 32 µM (inactive) in [5]; 0.992 µM (active) in assay [6]; 1.8 µM (active) in [7]; 5.95 µM (active) in [8]; > 32 µM (inactive) in assay [10].
For `CCc1ccc(CNC(=O)Cc2ccc(NC(=O)C3=C(C)OCCS3)cc2)cc1`, the EC50 in assay [11] is 0.592 µM (active); in [12], 3.01 µM (active); in assay [13], 10.7 µM (inconclusive); in assay [14], 51.1 µM (active); in assay [15] it was 23.3 µM (active); in assay [17] it was 0.379 µM (active). The concentration giving a half-maximal response (EC50) in assay [19] was 104 µM (active); in assay [20], 51.1 µM (inconclusive); in [21] it was > 195 µM (not active); in assay [22] it was 7.66 µM (inconclusive); in [23], 0.592 µM (inconclusive); in [24], 0.899 µM (active). Besides, the IC50 in assay [16] and in assay [18] was > 67.5 µM (inactive) in each case.
In the case of `O=C(Nc1ccc(Cl)cc1)c1ccc(OC2CSC2)cc1`, the IC50 in [25] was > 79.4 µM (inactive); in assay [26], > 79.4 µM (inactive); in assay [27] it was 16.7 µM (not active); in assay [28] it was > 79.4 µM (inactive).

For orientation: EC50 means the midpoint of the concentration-response curve. As a reminder, the IC50 is the concentration at which inhibition is half-maximal.
